The record followed here is patent US4263301A, “β-Phenyl-β-hydroxyethylaminoalkyltheophyllines as inhibitors of biosynthesis of triglycerides” (Shell Oil Company, priority 1980, dated 1981).

For the assay, the system named is synthesis of triglycerides (enzyme from pig adipose tissue). Description: Inhibition of triglyceride synthesis by enzyme preparation (homogenate supernatant) from pig adipose tissue, 14C-glycerol-3-phosphate incorporation. The assay is classed as biochemical. The settings on record: test compound 1000 micrograms per milliliter, 5% DMSO, incubated eight minutes at 37° C; compared to controls; average of two animals, three replicates each. The procedure:
The manner in which they cause this effect has not been established. Their effectiveness for this purpose has been ascertained by the following procedure.
An enzyme was prepared by homogenizing one gram of slices from pig adipose tissue, each slice being approximately 0.3 mm thick, in one-milliliter portions of a liquid medium (Liquid A). The homogenate then was centrifuged (10,000 g×15 minutes), and the supernatant phase (the enzyme) was poured through cheesecloth to remove fat that has risen to the top of the centrifuge tubes.
Liquid A had the following composition (in water):
0.15 M potassium chloride, 1 mM ethylenediaminetetracetic acid, 10 mM Hepes (N-2-hydroxyethylpiperazine-N'-2-ethanesulfonic acid), 1 mM DTT (dithiothreitol), pH=7.0.
A solution of the test compound (Liquid B) was prepared: 10 milligrams of test compound plus 0.5 milliliter dimethylsulfoxide (DMSO) plus 1.83 milliliters of glass-distilled water.
A premix (Liquid C) was freshly prepared before each test, from the following components. […]
0.25 milliliter of enzyme then was added. […] Ten milliliters of a 2:1 (v/v) mixture of toluene and Triton X-100 containing 0.27% New England Nuclear Omnifluor was added, and the radioactivity was determined in a liquid scintillation counter. […]
The percent inhibition by the test compound compared to the controls […] was determined.

In the case of `Cl.Cn1c(=O)c2c(ncn2CCCNCC(O)c2cc(C(C)(C)C)c(O)c(C(C)(C)C)c2)n(C)c1=O` (centres unmarked) [7-(3-(2-(3,5-bis-(1,1-dimethylethyl)-4-hydroxyphenyl)-2-hydroxyethylamino)propyl)-3,7-dihydro-1,3-dimethyl-1H-purine-2,6-dione, hydrochloride], the “Percent Inhibition” value is listed as 93. To `Cl.Cn1c(=O)c2c(ncn2CCNCC(O)c2cc(C(C)(C)C)c(O)c(C(C)(C)C)c2)n(C)c1=O` (centres unmarked) [7-(2-(2-(3,5-bis-(1,1-dimethylethyl)-4-hydroxyphenyl)-2-hydroxyethylamino)ethyl)-3,7-dihydro-1,3-dimethyl-1H-purine-2,6-dione, hydrochloride] belongs 95.
